Data reported in patent US20220265759A1, “COMPOSITION AND METHOD FOR PROMOTING WOUND HEALING” (THE BOARD OF TRUSTEES OF THE UNIVERSITY OF ILLIOIS, priority 2019, published 2022).
Peptide text beside a SMILES is read from it. * marks the point of attachment. Myristoyl = CCCCCCCCCCCCCC(=O)*

What was measured:
[1] = tested on: full thickness excisional wounds on mouse dorsal skin; assay: Excisional dermal wound healing in WT C57BL/6 mice; format: in vivo; settings: for reduction of wound size: compared to control peptide
Procedure: Mouse Healing Models. All animal procedures were performed in accordance with the Guide for the Care and Use of Laboratory Animals (National Institutes of Health). WT C57BL/6, eNOS^−/− and db/db mice were purchased from Jackson Laboratory (Bar Harbor, Me.). CCR10^−/− mice have been described in the art, see, e.g., Jin, et al. (2011) J. Immunol. 185(10):5723-31. Four 5-mm or two 8-mm full thickness excisional wounds were made on the dorsal skin of mice (male, aged at 9 weeks) using a standard skin biopsy punch under ketamine (100 mg/kg) and xylazine (5 mg/kg) anesthesia. Scrambled myristoylated (Myr−) control or Myr-CBD7 peptides were applied topically to wounds in F-127 gel sold under the tradename PLURONIC® after wounding (Mirza, et al. (2009) Am. J. Pathol. 175:2454-2462). Wound size was determined as previously described (Chen, et al. (2020) FASEB J. 34(4):5838-5850; Zhao, et al. (2016) PLoS ONE. 11:e0146451) and wounds were collected at indicated times for indicated measurements.
Hematoxylin and Eosin (H&E) Staining. H&E staining was performed as described previously (Chignalia, et al. (2015) Am. J. Pathol. 185:1251-1263). Slides with 5 μm tissue sections were baked at 60° C. for 30 minutes and stained with an Autostainer XL (Leica Microsystems, Wetzlar, Germany) using preset protocol. Briefly, slides were deparaffinized in three changes of xylene, rehydrated in 100% and 95% ethanol, […] followed by a brief immersion in High-Def and Bluing to obtain crisp nuclear details. Slides were then incubated in eosin for 2 minutes, dehydrated and mounted with Micromount media (Leica Biosystems). Whole slide images were obtained using Aperio AT2 brightfield scanner (Leica Microsystems, Wetzlar, Germany).
CCL28 (also called mucosa-associated epithelial chemokine) is a CC chemokine that signals via CCR10 as well as CCR3 (Pan, et al. (2000) J. Immunol. 165:2943). CCR10 has been reported to have two functional ligands, CCL27 and CCL28 that are involved in the epithelial immunity (Xiang, et al. (2012) Protein Cell 3:571-580). It was observed that CCL28 and CCR10 levels were highly expressed compared to CCL27 and CCR3 in skin of WT C57BL/6 mice. […] Therefore, it was subsequently investigated whether blockade of CCR10-eNOS interaction with Myr-CBD7 peptide has an effect on wound healing in WT C57BL/6 mice. Four 5 mm diameter full thickness excisional wounds were made on the mouse dorsal skin and 30 μl Myr-CBD7 peptide (50 μM) was topically administrated onto the wounds immediately after creating the punch wound.

[2] = tested on: eNOS; assay: eNOS expression in db/db mouse wounds (western blot); format: in vivo, db/db mice; settings: day 12
Procedure: Immunoblot and Co-Immunoprecipitation (Co-IP). After serum starvation, inhibitors were added 45 minutes prior to stimulation for indicated times at 37° C., and cells were then collected and lysed for western blot analysis. After probing for p-eNOS (Ser1177), p-p85 (Tyr458), p-Src (Tyr 416), and p-ERK (T202/Y204), the same blots were stripped and re-probed for total proteins mentioned above. For detection of CCL28-induced protein levels of β-catenin and Bcl-2, near-confluent endothelial cells were incubated with 500 ng/ml CCL28 for 24 hours in EGM-2 medium containing 1% FBS.
Two 8 mm full thickness excisional wounds were made on the dorsal skin of diabetic db/db mice and then 50 μl of 50 μM Myr-CBD7 peptide was topically applied. […] Reduced CCR10-eNOS interaction was also observed in the mouse wounds following treatment with Myr-CBD7 peptide as determined by Co-IP (FIG. 6).

[3] = tested on: eNOS and CCR10 interaction with LAMP1; assay: eNOS internalization and degradation in HDMVECs stimulated with CCL28 (Co-IP with LAMP1, confocal microscopy); format: cell-based, human
Procedure: Co-IP Experiments, cells or mouse wounds were collected after treatment, and lysed in 2% ODG in Tris buffer. The homogenates were further prepared for Co-IP experiments as described in the art (Chen, et al. (2018) Mol. Biol. Cell 29(10):1190-1202; Chen, et al. (2020) FASEB J. 34(4):5838-5850; Chen, et al. (2015) Ann. Rheum. Dis. 74:1898-1906).
Confocal Microscopy. For cellular immunostaining, confluent monolayers of cells grown on coverslips were prepared as described previously (Chen, et al. (2012) Mel. Biol. Cell 23(7):1388-1398). Fluorescent images were obtained using a Zeiss LSM 880 confocal microscope. The co-localization coefficient in specified regions of interest (ROI) were determined using Zeiss Zen software. Briefly, using the Overlay tool, the desired ROI was drawn along the cell edge and the values for the ROIs tabulated. The scatterplot and table were automatically adjusted to the pixel distribution for the selected ROI. The data from different treatment groups were collected and analyzed for statistical significance as described previously (Chen, et al. (2020) FASEB J. 34(4):5838-5850). […]
Since myristoylated 7 amino acid CCR10-binding domain (Myr-CBD7) peptide can block eNOS interaction with CCR10 and increase eNOS activity in HUVECs, it was assessed whether Myr-CBD7 can prevent eNOS internalization and degradation in HDMVECs following CCL28 stimulation. […]

SMILES: CCCCCCCCCCCCCC(=O)N[C@@H](CCCCN)C(=O)N[C@H](C(=O)N[C@@H](CO)C(=O)N[C@@H](C)C(=O)N[C@@H](CO)C(=O)N[C@@H](CC(C)C)C(=O)N[C@@H](CCSC)C(=O)O)[C@@H](C)CC [Myr-CBD7, myr-KISASLM] (Myristoyl-KISASLM-OH)
- reduction of wound size ([1]; day 5, 30 μl of 50 μM topical): 20%
- wound size (FIG. 1) ([1]; day 5 and 7, 30 μl (50 μM) per wound, vs Myr-control construct, P<0.05): reduced wound size significantly
- reduction of wound size ([1]; day 7, 30 μl of 50 μM topical): 35%
- re-epithelization of the skin wound (H&E stained sections) ([1]; day 7, vs control construct): associated with re-epithelization of the skin wound
- wound healing time ([1]; topical administration on dermal wounds): decreased
- eNOS expression in wounds [2]: significantly elevated
- eNOS interaction with LAMP1 ([3]; HDMVECs, pretreatment, CCL28 stimulation, compared to scrambled control peptide): prevented
- eNOS localization (confocal microscopy) ([3]; pretreatment prior to CCL28 for 3 hours): remained on the plasma membrane
